Results: US10800741B2 (ANCUREALL PHARMACEUTICAL (SHANGHAI) CO., LTD., priority 2017, dated 2020)

Assays:
Type in all cases: cell-based, Human
H1581 (FGFR1 amp) = assay: In vitro growth inhibition of H1581 tumor cells (MTT/CCK8); details: Homo sapiens, NCI-H1581; in vitro growth inhibition (or induction of apoptosis), cells cultured 3 to 5 days, MTT (CCK8); read-out: IC50 H1581 (FGFR1 amp)
Description: (§1) Tumor cell lines are an effective model for studying in vitro tumor growth inhibition. In the present invention, a representative tumor cell line was selected to determine the cell growth inhibition activity of the present compound. All cell lines used were from ATCC, DSMZ, and cell banks of the Chinese Academy of Sciences. Cell culture conditions and methods were in accordance with the requirements of each cell line. Cells were subcultured in vitro for no more than 3 generations each time, and as required, single-clone purification and identification of cell lines could be carried out.
(§2) The cell culture media used were RPMI1640 (Gibco), DMEM (Gibco), MEM (Gibco), L15 (Gibco), IMDM (Gibco), McCOY'S5A, and William's (Gibco). 5-20% fetal bovine serum (Gibco), 1% double antibiotic, 2 mM glutamine, or 1 mM sodium pyruvate were added. The names, species, major gene characteristics, culture media and cell sources of the cell lines used are shown in table 1, wherein “amp” refers to gene amplification. “+++” refers to gene overexpression. The main genetic characteristics of cells were obtained from the COSMIC Cell Lines Project and related research papers, respectively.
(§3) Adherent cells were digested with 0.25% trypsin-EDTA (Gibco). Suspension culture cells were collected by centrifugation (1700 rpm, 3 minutes). The supernatant was discarded and the cells were counted. According to each cell growth cycle, different concentrations of cells were prepared (5˜10×10^4 cells per ml), and inoculated to 96-well plates (Corning), with 100 μl per well, and incubated overnight at 37° C., 5% CO2. The next day, the test compound was added to the cultured cells (2 wells in parallel). The final concentration of the solvent was less than 1/1,000. The cells were further cultured for 3 to 5 days and assayed by MTT.
(§4) The compound was stored at a concentration of 10 mM at −20° C. and diluted to 2- or 10-fold series prior to use. BGJ398 and AC220 were synthesized according to the methods of WO2006420A1 and US2007232604A1, respectively.
(§5) The adherent cells were taken out from the cell culture medium, and immediately added to a freshly prepared complete medium containing 10% CCK8 (5% FBS), 100 ul per hole. The suspended cells were directly added to a CCK8 reagent until reaching a final concentration of 10% and cultured for 1 to 4 hours.
(§6) T=optical density of drug-treated cell wells−optical density of blank control wells; T0=optical density of cell wells before drug treatment−optical density of blank control wells; C=optical density of solvent control wells−optical density of blank control wells. […] The experiments were repeated 1 to 3 times and a statistical analysis of data was conducted.

KATO III (FGFR2 amp) = assay: In vitro growth inhibition of KATO III tumor cells (MTT/CCK8); details: Homo sapiens, KATO III; in vitro growth inhibition (or induction of apoptosis), cells cultured 3 to 5 days, MTT (CCK8); read-out: IC50 KATO III (FGFR2 amp)
Description: as §1, §2, §3, §4, §5, §6

Hep3B2 (FGFR3/4+++) = assay: In vitro growth inhibition of Hep3B2 tumor cells (MTT/CCK8); details: Homo sapiens, Hep3B; in vitro growth inhibition (or induction of apoptosis), cells cultured 3 to 5 days, MTT (CCK8); read-out: IC50 Hep3B2 (FGFR3/4+++)
Description: as §1, §2, §3, §4, §5, §6

MOLM-13 (FLT3-ITD) = assay: In vitro growth inhibition of MOLM-13 tumor cells (MTT/CCK8); details: Homo sapiens, MOLM-13; in vitro growth inhibition (or induction of apoptosis), cells cultured 3 to 5 days, MTT (CCK8); read-out: IC50 MOLM-13 (FLT3-ITD)
Description: as §1, §2, §3, §4, §5, §6

KCL-22 (BCR-ABL) = assay: In vitro growth inhibition of KCL-22 tumor cells (MTT/CCK8); details: Homo sapiens, KCL-22; in vitro growth inhibition (or induction of apoptosis), cells cultured 3 to 5 days, MTT (CCK8); read-out: IC50 KCL-22 (BCR-ABL)
Description: as §1, §2, §3, §4, §5, §6

Kasumi-1 (KIT N822K) = assay: In vitro growth inhibition of Kasumi-1 tumor cells (MTT/CCK8); details: Homo sapiens, Kasumi 1; in vitro growth inhibition (or induction of apoptosis), cells cultured 3 to 5 days, MTT (CCK8); read-out: IC50 Kasumi-1 (KIT N822K)
Description: as §1, §2, §3, §4, §5, §6

H1703 (PDGFRa amp) = assay: In vitro growth inhibition of H1703 tumor cells (MTT/CCK8); details: Homo sapiens, NCI-H1703; in vitro growth inhibition (or induction of apoptosis), cells cultured 3 to 5 days, MTT (CCK8); read-out: IC50 H1703 (PDGFRa amp)
Description: as §1, §2, §3, §4, §5, §6

Karpas 299 (NPM-ALK) = assay: In vitro growth inhibition of Karpas 299 tumor cells (MTT/CCK8); details: Homo sapiens, KARPAS-299; in vitro growth inhibition (or induction of apoptosis), cells cultured 3 to 5 days, MTT (CCK8); read-out: IC50 Karpas 299 (NPM-ALK)
Description: as §1, §2, §3, §4, §5, §6

SMILES	IC50 (H1581 (FGFR1 amp))	IC50 (KATO III (FGFR2 amp))	IC50 (Hep3B2 (FGFR3/4+++))	IC50 (MOLM-13 (FLT3-ITD))	IC50 (KCL-22 (BCR-ABL))	IC50 (Kasumi-1 (KIT N822K))	IC50 (H1703 (PDGFRa amp))	IC50 (Karpas 299 (NPM-ALK))
COc1cc(Oc2ccnc3cc(OC)c(C(N)=O)cc23)ccc1NC(=O)Nc1cc(C(C)(C)C)on1 [Compound 5, 4-{4-[3-(5-tert-butyl-isoxazol-3-yl)-ureido]-3-methoxy-phenoxy}-7-methoxyquinolin-6-carboxamide]	65.3 nM	9.76 nM	156 nM	4.26 nM	2.15 nM	12.9 nM	18.8 nM	> 1000 nM
COc1cc2nccc(Oc3ccc(NC(=O)Nc4cc(C(C)(C)C)on4)c(C)c3)c2cc1C(N)=O [Compound 6, 4-{4-[3-(5-tert-butyl-isoxazol-3-yl)-ureido]-3-methyl-phenoxy}-7-methoxyquinolin-6-carboxamide]	10.6 nM	2.86 nM	45.3 nM	20.9 nM	17.8 nM	26.1 nM	15.6 nM	689 nM
COc1cc2nccc(Oc3ccc(NC(=O)Nc4cc(C(C)(C)C)on4)c(N4CCN(C)CC4)c3)c2cc1C(N)=O [Compound 10, 4-[4-[3-(5-tert-butyl-isoxazol-3-yl)-ureido]-3-(4-methyl-piperazin-1-yl)-phenoxy]-7-methoxyquinolin-6-carboxamide]	> 1000 nM	> 1000 nM	> 1000 nM	> 1000 nM	> 1000 nM	71.9 nM	> 1000 nM	> 1000 nM
COc1cc2nccc(Oc3ccc(N(C)C(=O)Nc4cc(C(C)(C)C)on4)cc3)c2cc1C(N)=O [Compound 11, 4-{4-[3-(5-tert-butyl-isoxazol-3-yl)-1-methyl-ureido]-phenoxy}-7-methoxyquinolin-6-carboxamide]	270 nM	12.1 nM	677 nM	2.41 nM	28.1 nM	89.8 nM	20.4 nM	> 1000 nM
COc1cc2nccc(Oc3ccc(NC(=O)N(C)c4cc(C(C)(C)C)on4)c(Cl)c3)c2cc1C(N)=O [Compound 12, 4-{4-[3-(5-tert-butyl-isoxazol-3-yl)-3-methyl-ureido]-3-chloro-phenoxy}-7-methoxyquinolin-6-carboxamide]	584 nM	103 nM	791 nM	122 nM	114 nM	389 nM	139 nM	> 1000 nM
COc1cc2nccc(Oc3ccc(NC(=O)Nc4cc(C(C)(C)C)no4)c(Cl)c3)c2cc1C(N)=O [Compound 13, 4-{4-[3-(3-tert-butyl-isoxazol-5-yl)-ureido]-3-chloro-phenoxy}-7-methoxyquinolin-6-carboxamide]	0.86 nM	0.84 nM	6.61 nM	5.41 nM	3.19 nM	5.46 nM	9.74 nM	252 nM
CNC(=O)c1cc2c(Oc3ccc(NC(=O)Nc4cc(C(C)(C)C)on4)c(Cl)c3)ccnc2cc1OC [Compound 14, 4-{4-[3-(5-tert-butyl-isoxazol-3-yl)-ureido]-3-chloro-phenoxy}-7-methoxyquinolin-6-carboxylic acid methylamide]	10.5 nM	2.16 nM	24.1 nM	5.56 nM	8.97 nM	33.3 nM	10.2 nM	725 nM
CNC(=O)c1cc2c(Oc3ccc(NC(=O)Nc4cc(C(C)(C)C)no4)c(Cl)c3)ccnc2cc1OC [Compound 15, 4-{4-[3-(3-tert-butyl-isoxazol-5-yl)-ureido]-3-chloro-phenoxy}-7-methoxyquinolin-6-carboxylic acid methylamide]	1.06 nM	1.34 nM	24.1 nM	5.25 nM	4.09 nM	5.43 nM	12.9 nM	516 nM

Continued, values first:

IC50 (H1581 (FGFR1 amp))	IC50 (KATO III (FGFR2 amp))	IC50 (Hep3B2 (FGFR3/4+++))	IC50 (MOLM-13 (FLT3-ITD))	IC50 (KCL-22 (BCR-ABL))	IC50 (Kasumi-1 (KIT N822K))	IC50 (H1703 (PDGFRa amp))	IC50 (Karpas 299 (NPM-ALK))	SMILES
31.4 nM	3.9 nM	84.9 nM	7.72 nM	23.1 nM	71.4 nM	168 nM	770 nM	COCCNC(=O)c1cc2c(Oc3ccc(NC(=O)Nc4cc(C(C)(C)C)on4)c(Cl)c3)ccnc2cc1OC [Compound 17, 4-{4-[3-(5-tert-butyl-isoxazol-3-yl)-ureido]-3-chloro-phenoxy}-7-methoxyquinolin-6-carboxylic acid (2-methoxy-ethyl)-amide]
224 nM	6.73 nM	638 nM	410 nM	83.6 nM	59.6 nM	68 nM	> 1000 nM	COc1cc2nccc(Oc3ccc(NC(=O)Nc4cc(C(C)(C)C)on4)c(Cl)c3)c2cc1[N+](=O)[O-] [Compound 18, 1-(5-tert-butyl-isoxazol-3-yl)-3-[2-chloro-4-(7-methoxy-6-nitro-quinolin-4-yloxy)-phenyl]-urea]
788 nM	46.8 nM	> 1000 nM	632 nM	150 nM	131 nM	172 nM	> 1000 nM	COc1cc2nccc(Oc3ccc(NC(=O)Nc4cc(C(C)(C)C)on4)c(Cl)c3)c2cc1C#N [Compound 19, 1-(5-tert-butyl-isoxazol-3-yl)-3-[2-chloro-4-(6-cyano-7-methoxy-quinolin-4-yloxy)-phenyl]-urea]
1.75 nM	1.14 nM	13.9 nM	2.21 nM	5.55 nM	22.1 nM	8.71 nM	195 nM	COc1cc2nccc(Oc3ccc(NC(=O)Nc4cc(C(C)(C)C)on4)c(Cl)c3)c2cc1NC(C)=O [Compound 20]
17.4 nM	2.8 nM	37.5 nM	7.07 nM	26.6 nM	88.9 nM	157 nM	398 nM	CCC(=O)Nc1cc2c(Oc3ccc(NC(=O)Nc4cc(C(C)(C)C)on4)c(Cl)c3)ccnc2cc1OC [Compound 21, N-(4-{4-[3-(5-tert-butyl-isoxazol-3-yl)-ureido]-3-chloro-phenoxy}-7-methoxyquinolin-6-yl)-propionamide]
40.7 nM	8.54 nM	18.7 nM	16.9 nM	61.7 nM	91.7 nM	27.8 nM	610 nM	C=CC(=O)Nc1cc2c(Oc3ccc(NC(=O)Nc4cc(C(C)(C)C)on4)c(Cl)c3)ccnc2cc1OC [Compound 22, N-(4-{4-[3-(5-tert-butyl-isoxazol-3-yl)-ureido]-3-chloro-phenoxy}-7-methoxyquinolin-6-yl)-acrylamide]
227 nM	10.5 nM	214 nM	94.9 nM	436 nM	547 nM	420 nM	> 1000 nM	COc1cc2nccc(Oc3ccc(NC(=O)Nc4cc(C(C)(C)C)on4)c(Cl)c3)c2cc1NC(=O)C1CCCC1 [Compound 23, cyclopentane carboxylic acid (4-{4-[3-(5-tert-butyl-isoxazol-3-yl)-ureido]-3-chloro-phenoxy}-7-methoxyquinolin-6-yl)-amide]
